From BindingDB's records for doi:10.1124/jpet.104.081562 (Mayo Clinic, 2005) come the findings set out here.

What is called pKi is the negative decadic logarithm of the Ki, by convention in mol/L. Read a high pKi as a low Ki.

Each structure is given as a SMILES string. pKi: −log10 of the molar value.

This experiment addresses T1, Promotilin (Homo sapiens, UniProt P12872).
T1 sequence (P12872 whole entry): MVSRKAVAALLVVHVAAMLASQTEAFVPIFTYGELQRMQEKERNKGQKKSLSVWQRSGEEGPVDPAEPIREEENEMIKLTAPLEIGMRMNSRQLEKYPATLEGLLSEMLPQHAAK

On to `CC[C@H](C)[C@H](NC(=O)[C@@H]1CCCN1C(=O)[C@@H](NC(=O)[C@@H](N)Cc1ccccc1)C(C)C)C(=O)N[C@@H](Cc1ccccc1)C(=O)N[C@H](C(=O)N[C@@H](Cc1ccc(O)cc1)C(=O)NCC(=O)N[C@@H](CCC(=O)O)C(=O)N[C@@H](CC(C)C)C(=O)N[C@@H](CCC(N)=O)C(=O)N[C@@H](CCCNC(=N)N)C(=O)N[C@@H](CCSC)C(=O)N[C@@H](CCC(N)=O)C(=O)N[C@@H](CCC(=O)O)C(=O)N[C@@H](CCCCN)C(=O)N[C@@H](CCC(=O)O)C(=O)N[C@@H](CCCNC(=N)N)C(=O)N[C@@H](CC(N)=O)C(=O)N[C@@H](CCCCN)C(=O)NCC(=O)N[C@@H](CCC(N)=O)C(=O)O)[C@@H](C)O` [CAS_52906-92-0], for which the pKi is 8.64. Molecule `CC[C@H](C)[C@H](NC(=O)[C@H](CCCN=C(N)N)NC(=O)[C@H](CCC(N)=O)NC(=O)[C@H](CC(C)C)NC(=O)[C@H](CCC(=O)O)NC(=O)CNC(=O)[C@H](Cc1ccc(O)cc1)NC(=O)[C@@H](NC(=O)[C@@H](Cc1ccc(C(=O)c2ccccc2)cc1)NC(=O)[C@@H](NC(=O)[C@@H]1CCCN1C(=O)[C@@H](NC(=O)[C@@H](N)Cc1ccccc1)C(C)C)[C@@H](C)CC)[C@@H](C)O)C(=O)N[C@@H](CCC(N)=O)C(=O)N[C@@H](CCC(=O)O)C(=O)N[C@@H](CCCCN)C(=O)N[C@@H](CCC(=O)O)C(=O)N[C@@H](CCCN=C(N)N)C(=O)N[C@@H](CC(N)=O)C(=O)N[C@@H](CCCCN)C(=O)NCC(=O)N[C@@H](CCC(N)=O)C(=O)O` [[D-Bpa5,Ile13]Motilin] showed a pKi of 6.38.

Molecule `CC[C@H](C)[C@H](NC(=O)[C@H](CCCN=C(N)N)NC(=O)[C@H](CCC(N)=O)NC(=O)[C@H](CC(C)C)NC(=O)[C@H](CCC(=O)O)NC(=O)CNC(=O)[C@H](Cc1ccc(O)cc1)NC(=O)[C@@H](NC(=O)[C@H](Cc1ccc(C(=O)c2ccccc2)cc1)NC(=O)[C@@H](NC(=O)[C@@H]1CCCN1C(=O)[C@@H](NC(=O)[C@@H](N)Cc1ccccc1)C(C)C)[C@@H](C)CC)[C@@H](C)O)C(=O)N[C@@H](CCC(N)=O)C(=O)N[C@@H](CCC(=O)O)C(=O)N[C@@H](CCCCN)C(=O)N[C@@H](CCC(=O)O)C(=O)N[C@@H](CCCN=C(N)N)C(=O)N[C@@H](CC(N)=O)C(=O)N[C@@H](CCCCN)C(=O)NCC(=O)N[C@@H](CCC(N)=O)C(=O)O` [[L-Bpa5,Ile13]Motilin] showed a pKi of 7.30.
